ChEMBL document CHEMBL2177009, “The use of novel C-methylated spermidine derivatives to investigate the regulation of polyamine metabolism” (J Med Chem, 2011)

Assays:
DU-145 [1] = test: Metabolic stability in N1,N11-diethyl-norspermine pretreated human DU145 cells expressing SSAT assessed as accumulation of acetylated derivatives of compound in medium at 100 uM after 48 hrs; type: ADME, cell-based; details: du-145, 48 h
DU-145 [2] = test: Metabolic stability in human DU145 cells assessed as intracellular compound/methylspermine level per ug DNA at 100 uM after 24 hrs in presence of serum amine oxidases inhibitor aminoguanidine; type: ADME, cell-based; details: du-145, 24 h
[3] = Cytotoxicity against human DU145 cells assessed as cell growth at 100 uM after 72 hrs in presence of serum amine oxidase inhibitor aminoguanidine (RVb = 49 +/- 2 pmol/10^6 cells); type: cell-based, DU-145; details: read-out: Activity
DU-145 [4] = test: Metabolic stability in human DU145 cells assessed as intracellular compound/methylspermine level per ug DNA at 100 uM after 48 hrs in presence of serum amine oxidases inhibitor aminoguanidine; type: ADME, cell-based; details: du-145, 48 h
DU-145 [5] = test: Metabolic stability in human DU145 cells assessed as intracellular compound level per ug DNA at 100 uM after 72 hrs in presence of serum amine oxidases inhibitor aminoguanidine; type: ADME, cell-based; details: du-145, 72 h
DU-145 [6] = test: Metabolic stability in human DU145 cells assessed as intracellular spermidine level per ug DNA at 100 uM after 48 hrs in presence of serum amine oxidases inhibitor aminoguanidine (reference value: 137 +/- 5 pmol/ug DNA); type: ADME, cell-based; details: du-145, 48 h
DU-145 [7] = test: Metabolic stability in human DU145 cells assessed as intracellular spermidine level per ug DNA at 100 uM after 24 hrs in presence of serum amine oxidases inhibitor aminoguanidine (reference value: 154 +/- 7 pmol/ug DNA); type: ADME, cell-based; details: du-145, 24 h
DU-145 [8] = test: Metabolic stability in human DU145 cells assessed as intracellular methylspermine level per ug DNA at 100 uM after 72 hrs in presence of serum amine oxidases inhibitor aminoguanidine; type: ADME, cell-based; details: du-145, 72 h
DU-145 [9] = test: Effect on intracellular level of decarboxylated S-adenosyl-L-methionine in human DU145 cells assessed per million cells at 100 uM after 72 hrs in presence of serum amine oxidase inhibitor aminoguanidine and ODC inhibitor DFMO (RVb = 263 +/- 14 pmol/10^6 cells); type: functional
[10] = molecular target: T1, Peroxisomal N(1)-acetyl-spermine/spermidine oxidase (Homo sapiens, UniProt Q6QHF9); test: Metabolic stability of the compound assessed as human recombinant APAO-mediated compound degradation at 0.5 to 1 mM after 5 to 60 mins in presence of benzaldehyde; type: ADME; details: 1000 µM
T1 sequence (Q6QHF9 whole entry): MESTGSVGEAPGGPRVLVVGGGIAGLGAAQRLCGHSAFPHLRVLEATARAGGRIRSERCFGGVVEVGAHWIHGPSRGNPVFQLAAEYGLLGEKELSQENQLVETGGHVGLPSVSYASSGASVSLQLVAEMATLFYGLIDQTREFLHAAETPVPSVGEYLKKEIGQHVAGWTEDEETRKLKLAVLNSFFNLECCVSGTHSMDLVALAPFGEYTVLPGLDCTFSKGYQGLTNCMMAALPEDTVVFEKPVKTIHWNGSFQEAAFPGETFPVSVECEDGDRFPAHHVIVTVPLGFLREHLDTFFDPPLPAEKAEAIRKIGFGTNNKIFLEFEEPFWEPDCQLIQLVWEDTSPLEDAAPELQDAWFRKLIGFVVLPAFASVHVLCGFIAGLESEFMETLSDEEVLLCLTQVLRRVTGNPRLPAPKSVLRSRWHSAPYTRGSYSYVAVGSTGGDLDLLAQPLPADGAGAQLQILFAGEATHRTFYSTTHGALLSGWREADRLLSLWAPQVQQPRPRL

DU-145 [11] = test: Metabolic stability in human DU145 cells assessed as intracellular spermine level per ug DNA at 100 uM after 72 hrs in presence of serum amine oxidases inhibitor aminoguanidine (reference value: 154 +/- 7 pmol/ug DNA); type: ADME, cell-based; details: du-145, 72 h
DU-145 [12] = test: Metabolic stability in human DU145 cells assessed as intracellular compound level per ug DNA at 100 uM after 24 hrs in presence of serum amine oxidases inhibitor aminoguanidine; type: ADME, cell-based; details: du-145, 24 h
DU-145 [13] = test: Metabolic stability in human DU145 cells assessed as intracellular compound/methylspermine level per ug DNA at 100 uM after 72 hrs in presence of serum amine oxidases inhibitor aminoguanidine; type: ADME, cell-based; details: du-145, 72 h
DU-145 [14] = test: Metabolic stability of the compound in human DU145 cells assessed as metabolites-mediated cell toxicity at 10 uM after 48 hrs by MTT assay in presence of bovine serum amine oxidase; type: ADME, cell-based; details: du-145, 48 h
DU-145 [15] = test: Metabolic stability in human DU145 cells assessed as intracellular spermine level per ug DNA at 100 uM after 24 hrs in presence of serum amine oxidases inhibitor aminoguanidine (reference value: 122 +/- 11 pmol/ug DNA); type: ADME, cell-based; details: du-145, 24 h
DU-145 [16] = test: Metabolic stability in human DU145 cells assessed as intracellular spermidine level per ug DNA at 100 uM after 72 hrs in presence of serum amine oxidases inhibitor aminoguanidine (reference value: 137 +/- 3 pmol/ug DNA); type: ADME, cell-based; details: du-145, 72 h
DU-145 [17] = test: Metabolic stability in human DU145 cells assessed as intracellular compound level per ug DNA at 100 uM after 48 hrs in presence of serum amine oxidases inhibitor aminoguanidine; type: ADME, cell-based; details: du-145, 48 h
DU-145 [18] = test: Effect on intracellular level of S-adenosyl-Lmethionine in human DU145 cells assessed per million cells at 100 uM after 72 hrs in presence of serum amine oxidase inhibitor aminoguanidine and ODC inhibitor DFMO (RVb = 80 +/- 5 pmol/10^6 cells); type: functional
DU-145 [19] = test: Metabolic stability in human DU145 cells assessed as intracellular methylspermine level per ug DNA at 100 uM after 48 hrs in presence of serum amine oxidases inhibitor aminoguanidine; type: ADME, cell-based; details: du-145, 48 h
DU-145 [20] = test: Metabolic stability in human DU145 cells assessed as intracellular spermine level per ug DNA at 100 uM after 48 hrs in presence of serum amine oxidases inhibitor aminoguanidine (reference value: 133 +/- 4 pmol/ug DNA); type: ADME, cell-based; details: du-145, 48 h
DU-145 [21] = test: Metabolic stability in human DU145 cells assessed as intracellular methylspermine level per ug DNA at 100 uM after 24 hrs in presence of serum amine oxidases inhibitor aminoguanidine; type: ADME, cell-based; details: du-145, 24 h
DU-145 [22] = test: Metabolic stability in N1,N11-diethyl-norspermine pretreated human DU145 cells expressing SSAT assessed as intracellular accumulation of acetylated derivatives of compound at 100 uM after 48 hrs; type: ADME, cell-based; details: du-145, 48 h
DU-145 [23] = test: Metabolic stability in human DU145 cells assessed as intracellular putrescine level per ug DNA at 100 uM after 24 hrs in presence of serum amine oxidases inhibitor aminoguanidine (reference value: 11 +/- 2 pmol/ug DNA); type: ADME, cell-based; details: du-145, 24 h
DU-145 [24] = test: Metabolic stability in human DU145 cells assessed as intracellular putrescine level per ug DNA at 100 uM after 48 hrs in presence of serum amine oxidases inhibitor aminoguanidine (reference value: 7 +/- 1 pmol/ug DNA); type: ADME, cell-based; details: du-145, 48 h
[25] = molecular target: T1, Peroxisomal N(1)-acetyl-spermine/spermidine oxidase; test: Metabolic stability of the compound assessed as human recombinant APAO-mediated compound degradation at 0.5 to 1 mM after 5 to 60 mins; type: ADME; details: 1000 µM
DU-145 [26] = test: Metabolic stability in human DU145 cells assessed as intracellular putrescine level per ug DNA at 100 uM after 72 hrs in presence of serum amine oxidases inhibitor aminoguanidine (reference value: 6 pmol/ug DNA); type: ADME, cell-based; details: du-145, 72 h
DU-145 [27] = test: Metabolic stability in human DU145 cells assessed as intracellular Ac-8-Methylspermidine level per ug DNA at 100 uM after 48 hrs in presence of serum amine oxidases inhibitor aminoguanidine; type: ADME, cell-based; details: du-145, 48 h
DU-145 [28] = test: Metabolic stability in human DU145 cells expressing SSAT assessed as accumulation of acetylated derivatives of compound in medium at 100 uM after 48 hrs; type: ADME, cell-based; details: du-145, 48 h
DU-145 [29] = test: Metabolic stability in human DU145 cells assessed as intracellular Ac-8-Methylspermidine level per ug DNA at 100 uM after 24 hrs in presence of serum amine oxidases inhibitor aminoguanidine; type: ADME, cell-based; details: du-145, 24 h
DU-145 [30] = test: Metabolic stability of the compound in human DU145 cells assessed as compound metabolite-mediated cell toxicity at 100 uM after 48 hrs by MTT assay in presence of bovine serum amine oxidase; type: ADME, cell-based; details: du-145, 48 h
DU-145 [31] = test: Metabolic stability in human DU145 cells assessed as intracellular Ac-8-Methylspermidine level per ug DNA at 100 uM after 72 hrs in presence of serum amine oxidases inhibitor aminoguanidine; type: ADME, cell-based; details: du-145, 72 h

SMILES | Stability (DU-145 [1]) | Drug metabolism (DU-145 [2]) [pmol] | Drug metabolism (DU-145 [4]) [pmol] | Drug metabolism (DU-145 [5]) [pmol] | Drug metabolism (DU-145 [6]) [pmol/ug DNA] | Drug metabolism (DU-145 [7]) [pmol/ug DNA] | Drug metabolism (DU-145 [8]) [pmol] | Stability [10] | Drug metabolism (DU-145 [11]) [pmol] | Drug metabolism (DU-145 [12]) [pmol] | Drug metabolism (DU-145 [13]) [pmol] | Drug metabolism (DU-145 [15]) [pmol] | Drug metabolism (DU-145 [16]) [pmol] | Drug metabolism (DU-145 [17]) [pmol] | Drug metabolism (DU-145 [19]) [pmol] | Drug metabolism (DU-145 [20]) [pmol] | viability at 72 h, 100 µM [3] [%] | Activity (DU-145 [9]) [pmol] | Stability (DU-145 [14]) | Activity (DU-145 [18]) [pmol] | also measured
CC(=O)NCCCNCCCCN | Unstable |  |  |  |  |  |  |  |  |  |  |  |  |  |  |  |  |  |  |  | 
C[C@H](N)CCNCCCCN | Unstable | 301 | 283 | 311 | 11 | 15 | 60 | Unstable | 74 | 264 | 371 | 62 | 16 | 239 | 44 | 55 | 84 | 49 | Stable | 177 | Drug metabolism (DU-145 [21]): 37 pmol
CC(CN)CNCCCCN.Cl (stereo not given) | Unstable | 200 | 202 | 134 | 38 | 39 | 80 | Unstable | 75 | 133 | 214 | 67 | 38 | 135 | 77 | 72 | 86 | <5 | Stable | 148 | Stability (DU-145 [22]): Unstable; Drug metabolism (DU-145 [23]): < 5 pmol; Drug metabolism (DU-145 [24]): < 5 pmol; Stability [25]: Unstable; Drug metabolism (DU-145 [26]): < 5 pmol; Drug metabolism (DU-145 [21]): 67 pmol
CC(CCN)NCCCCN.Cl (stereo not given) | Unstable | 181 | 168 | 176 | 18 | 23 |  | Stable | 115 | 181 | 176 | 92 | 22 | 168 |  | 103 | 91 | 109 | Stable | 149 | Drug metabolism (DU-145 [23]): < 5 pmol

Continued, in another order:

Stability (DU-145 [1]) | Drug metabolism (DU-145 [2]) [pmol] | Drug metabolism (DU-145 [4]) [pmol] | Drug metabolism (DU-145 [5]) [pmol] | Drug metabolism (DU-145 [6]) [pmol/ug DNA] | Drug metabolism (DU-145 [7]) [pmol/ug DNA] | Drug metabolism (DU-145 [8]) [pmol] | Stability [10] | Drug metabolism (DU-145 [11]) [pmol] | Drug metabolism (DU-145 [12]) [pmol] | Drug metabolism (DU-145 [13]) [pmol] | Drug metabolism (DU-145 [15]) [pmol] | Drug metabolism (DU-145 [16]) [pmol] | Drug metabolism (DU-145 [17]) [pmol] | Drug metabolism (DU-145 [19]) [pmol] | Drug metabolism (DU-145 [20]) [pmol] | SMILES | viability at 72 h, 100 µM [3] [%] | Activity (DU-145 [9]) [pmol] | Stability (DU-145 [14]) | Activity (DU-145 [18]) [pmol] | also measured
Unstable | 257 | 326 | 332 | 18 | 30 | 43 | Unstable | 70 | 257 | 375 | 83 | 20 | 287 | 39 | 57 | CC(N)CCCNCCCN (stereo not given) | 93 | 60 | Stable | 138 | Stability (DU-145 [22]): Unstable; Drug metabolism (DU-145 [27]): 7 pmol; Stability (DU-145 [28]): Unstable; Drug metabolism (DU-145 [29]): 15 pmol; Stability (DU-145 [30]): Unstable; Drug metabolism (DU-145 [31]): 4 pmol
Unstable |  |  |  |  |  |  | Unstable |  |  |  |  |  |  |  |  | NCCCCNCCCN [SPERMIDINE] | 89 | <5 | Stable | 126 | Stability (DU-145 [30]): Unstable
